Structures are written as SMILES. *1 amine or outer side, *2 acyl side, *3 side chain or, on linkers, in order; H or OH if unused. Where a SMILES comes first, the peptide text is derived from it. Side-chain parts run from the residue outwards. [ ]: non-standard residue; d: D form. The star is where a group is joined. C18 diacid = O=C(O)CCCCCCCCCCCCCCCCC(=O)*; γGlu = O=C(O)[C@H](CCC(=O)[*:2])N[*:1]; Aib = CC(C)(N)C(=O)O; Sar = CNCC(=O)O

This note sets out measurements from patent US20230103631A1, “PEPTIDES AS SELECTIVE GIP RECEPTOR AGONISTS” (Sanofi, priority 2020, published 2023).

Data set [1] can be described thus: Chemical stability assessment (relative purity loss by UHPLC-UV). The class given is physicochemical. Particulars: Chemical stability buffer system A: 20 mM phosphate buffer pH 7.4. Here is the method: Purity of a peptide batch was determined through UHPLC/MS prior to chemical stability measurement. The target concentration was […] pure compound. Solutions from solid samples were prepared in the following buffer systems with a concentration of ˜300 μM compound based on the previously determined % purity:
Chemical stability buffer system A) 20 mM phosphate buffer pH 7.4,
Chemical stability buffer system B) 8 mM phosphate buffer pH 7.4, 14 mg/ml propylene glycol, 5.5 mg/ml phenol
Chemical stability buffer system C) 100 mM phosphate buffer pH 7.4, 2.7 mg/ml m-cresol
Prepared solutions were filtered through […] pore size and filled into sterilized glass containers under laminar flow conditions.
Glass containers were stored for 28 days at 5 and 40° C. After this time, the samples were centrifuged for 15 min at 2500 RCF. Then 1.5 μl of the undiluted supernatant were analysed with UHPLC-UV.
The chemical stability was rated through the relative loss of purity calculated by the equation:
[(purity after 28 days at 5° C.)−(purity after 28 days at 40° C.)]/(purity after 28 days at 5° C.)]*100%
The purity is calculated as
[(peak area peptide)/(total peak area)]*100%
The analytical methods used were Analytical UHPLC Method B or C.
Peptide samples were prepared in Chemical stability buffer system A or B and stability was assessed as described in Methods.

The nature of the next data set: physchem. The class given is physicochemical. Particulars: for Soluble amount: 24 h, pH 7.4; for solubility at 24 h: pH 7.4, Soluble amount. The essentials:
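Peptide at 10 mg/ml (purity-corrected) in 100 mM phosphate pH 7.4, alone or with 2.7 mg/ml m-cresol; 1 h gentle agitation, then 24 h at 5 °C. Supernatant after 15 min at 2500 RCF quantified by UHPLC-UV against reference peptide, adjusted for extinction coefficients.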

Data set [2] has as its target human GLP-1 receptor (hGLP-1R) (Homo sapiens, UniProt P43220). As to the kind of experiment: cAMP HTRF assay, HEK-293 cell line over-expressing human GLP-1 receptor. The class given is cell-based. Particulars: HEK-293, cAMP, 0% HSA. The essentials: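 Thawed HEK-293 cells over-expressing human GLP-1R (5000 cells/well) in HBSS/20 mM HEPES buffer, with 0.1% HSA where stated, incubated with compound for 30 min at room temperature. Generated cAMP quantified by HTRF.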

The next data set deals with T1, human GIP receptor (Homo sapiens, UniProt P48546).
T1 construct: human adipocytes endogenously expressing the human GIP receptor; host or cells: human preadipocytes (Lonza) differentiated to adipocytes
T1 sequence (P48546 22-466): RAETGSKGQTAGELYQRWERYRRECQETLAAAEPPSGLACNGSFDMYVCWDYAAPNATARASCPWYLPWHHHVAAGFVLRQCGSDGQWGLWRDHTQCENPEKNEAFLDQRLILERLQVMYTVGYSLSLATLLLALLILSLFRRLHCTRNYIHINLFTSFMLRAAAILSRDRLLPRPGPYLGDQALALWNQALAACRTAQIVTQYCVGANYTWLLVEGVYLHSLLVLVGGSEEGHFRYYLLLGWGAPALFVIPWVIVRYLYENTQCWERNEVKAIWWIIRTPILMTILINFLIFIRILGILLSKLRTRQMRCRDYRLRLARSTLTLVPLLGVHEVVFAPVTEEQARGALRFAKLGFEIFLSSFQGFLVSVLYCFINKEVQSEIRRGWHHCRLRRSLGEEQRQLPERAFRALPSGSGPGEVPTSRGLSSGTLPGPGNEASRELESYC
As to the kind of experiment: cAMP HTRF assay in human adipocytes endogenously expressing the human GIP receptor. The class given is cell-based. Particulars: for EC50: read-out: hGIPR EC50; for Emax: read-out: hGIPR Emax. Here is the method:
For this, one vial of human preadipocytes (˜10^6 cells; Lonza) was thawed in a T-75 cell culture dish.
After 3 days, the cells were washed with PBS and 1.5 ml Trypsin, incubated for 4 min, then resuspended in medium, centrifugated for 10 min @ 300 rcf RT, resuspended again and distributed to four T-75 cell culture dishes.
After 5 days, the cells were washed with PBS and 1.5 ml Trypsin, incubated for 4 min, then resuspended in medium, centrifugated for 10 min @ 300 rcf RT, resuspended again and sawn in T-75 dishes (2.5×10^6 cells per dish) in 15 ml Differentiation medium each.
After 6 days of differentiation, 5000 cells per well were dispensed on a 96-well plate (#CLS3694 from Corning®, Sigma-Aldrich). For measurement of cAMP generation, 25 μL of test compound was added to each well of the 96-well plate, followed by incubation for 30 min at room temperature.
The cAMP generated following test compound stimulation was determined using a kit from Cisbio Corp. based on HTRF (Homogenous Time Resolved Fluorescence). The cAMP assay was performed according to manufacturer's instructions (Cisbio).
The cAMP content of cells was determined using a kit from Cisbio Corp. based on HTRF (Homogenous Time Resolved Fluorescence).

Data set [3] concerns the target T2, human GIP receptor (hGIPR) (Homo sapiens, UniProt P48546).
T2 sequence (P48546 22-466): T1 sequence (P48546 22-466)
As to the kind of experiment: Binding assay, displacement of [125I]GIP from HEK-293 membranes expressing GIPR. The following applies: [125I]GIP displacement. Here is the method: HEK-293 cells recombinantly over-expressing GIPR or GLP-1R were grown to 50% confluency, washed with warm 1×PBS (Gibco) and detached in HEPES/EDTA-buffer (100 mM HEPES pH 7.5, 5 mM EDTA). Cells were harvested by centrifugation at 4° C. and 3000×g and the pellets were stored at −80° C. until further processing.
After thawing on ice, pellets were resuspended in HEPES/EDTA-buffer and homogenized on ice for 1 min using Ultra-Turray T25. After subsequent sonification the cell debris was removed by centrifugation at 1000×g and 4° C. Supernatants were then ultra-centrifuged at 100000×g and 4° C. under vacuum for 30 min. Pellets were resuspended in HEPES/EDTA/NaCl-buffer (20 mM HEPES, 1 mM EDTA, 150 mM NaCl; add 1 Complete Mini Protease inhibitor cocktail to 10 ml buffer) and protein content was determined via BCA-Protein assay.

Sequence of human GLP-1 receptor (hGLP-1R) (P43220 24-463): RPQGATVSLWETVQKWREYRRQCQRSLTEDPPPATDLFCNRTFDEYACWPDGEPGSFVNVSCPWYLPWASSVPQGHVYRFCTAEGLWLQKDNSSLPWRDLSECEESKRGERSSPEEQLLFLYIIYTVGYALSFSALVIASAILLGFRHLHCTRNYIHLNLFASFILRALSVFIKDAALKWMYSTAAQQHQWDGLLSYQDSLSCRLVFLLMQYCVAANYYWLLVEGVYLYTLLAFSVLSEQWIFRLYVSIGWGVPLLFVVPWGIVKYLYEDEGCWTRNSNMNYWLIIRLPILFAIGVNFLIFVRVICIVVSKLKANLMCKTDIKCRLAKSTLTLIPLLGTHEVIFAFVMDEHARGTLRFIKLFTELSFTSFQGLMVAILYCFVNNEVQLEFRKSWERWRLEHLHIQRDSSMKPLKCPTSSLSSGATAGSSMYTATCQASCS

Consider `CC[C@H](C)[C@H](NC(=O)[C@H](CCCNC(=N)N)NC(=O)[C@H](CC(=O)O)NC(=O)[C@H](CCCCNC(=O)CNC(=O)CNC(=O)CNC(=O)CC[C@H](NC(=O)CCCCCCCCCCCCCCCCC(=O)O)C(=O)O)NC(=O)C(C)(C)NC(=O)[C@@H](NC(=O)[C@H](CO)NC(=O)[C@H](CC(C)C)NC(=O)[C@H](CC(=O)O)NC(=O)[C@H](CO)NC(=O)[C@@H](NC(=O)[C@H](Cc1ccccc1)NC(=O)[C@@H](NC(=O)CNC(=O)[C@H](CCC(=O)O)NC(=O)C(C)(C)NC(=O)[C@@H](N)Cc1ccc(O)cc1)[C@@H](C)O)[C@@H](C)CC)[C@@H](C)CC)C(=O)N[C@@H](Cc1c[nH]cn1)C(=O)N[C@@H](CCC(N)=O)C(=O)NC(C)(C)C(=O)N[C@@H](CCC(=O)O)C(=O)N[C@@H](Cc1ccccc1)C(=O)N[C@H](C(=O)N[C@@H](CCC(=O)O)C(=O)N[C@@H](Cc1c[nH]c2ccccc12)C(=O)N[C@@H](CC(C)C)C(=O)N[C@@H](CC(C)C)C(=O)N[C@@H](C)C(=O)N[C@@H](CCC(N)=O)C(=O)NCC(=O)N1CCC[C@H]1C(=O)N[C@@H](CO)C(=O)N[C@@H](CO)C(=O)NCC(=O)N[C@@H](C)C(=O)N1CCC[C@H]1C(=O)N1CCC[C@H]1C(=O)N1CCC[C@H]1C(=O)N[C@@H](CO)C(N)=O)[C@@H](C)CC` [SEQ ID NO: 5, H2N-Y-Aib-E-G-T-F-I-S-D-I-S-I-Aib-K[{Gly}3-gGlu-C18OH]-D-R-I-H-Q-Aib-E-F-I-E-W-I-L-A-Q-G-P-S-S-G-A-P-P-P-S-NH2] (H-Y[Aib]EGTFISDLSI[Aib]K([Gly-Gly-Gly-γGlu-C18 diacid])DRIHQ[Aib]EFIEWLLAQGPSSGAPPPS-NH2), for which the “Relative purity loss over 28 days at 40° C.” value in data set [1] is given as 5.8%. In the data set “physchem”, this molecule had a Soluble amount of more than 8.3 mg/mL and a solubility at 24 h of more than 9.3 mg/mL. In data set [2], this molecule had a concentration for a half-maximal effect (EC50) of more than 10 nM. Further, on human GIP receptor, the concentration giving a half-maximal response (EC50) is 0.5 nM and the Emax was 137%. This molecule had an IC50 in data set [3] of 0.1 nM.

Consider `CC[C@H](C)[C@H](NC(=O)[C@H](CCCNC(=N)N)NC(=O)[C@H](CC(=O)O)NC(=O)[C@H](CCCCNC(=O)CN(C)C(=O)CN(C)C(=O)CN(C)C(=O)CC[C@H](NC(=O)CCCCCCCCCCCCCCCCC(=O)O)C(=O)O)NC(=O)C(C)(C)NC(=O)[C@@H](NC(=O)[C@H](CO)NC(=O)[C@H](CC(C)C)NC(=O)[C@H](CC(=O)O)NC(=O)[C@H](CO)NC(=O)[C@@H](NC(=O)[C@H](Cc1ccccc1)NC(=O)[C@@H](NC(=O)CNC(=O)[C@H](CCC(=O)O)NC(=O)C(C)(C)NC(=O)[C@@H](N)Cc1ccc(O)cc1)[C@@H](C)O)[C@@H](C)CC)[C@@H](C)CC)C(=O)N[C@@H](Cc1c[nH]cn1)C(=O)N[C@@H](CCC(N)=O)C(=O)NC(C)(C)C(=O)N[C@@H](CCC(=O)O)C(=O)N[C@@H](Cc1ccccc1)C(=O)N[C@H](C(=O)N[C@@H](CCC(=O)O)C(=O)N[C@@H](Cc1c[nH]c2ccccc12)C(=O)N[C@@H](CC(C)C)C(=O)N[C@@H](CC(C)C)C(=O)N[C@@H](C)C(=O)N[C@@H](CCC(N)=O)C(=O)NCC(=O)N1CCC[C@H]1C(=O)N[C@@H](CO)C(=O)N[C@@H](CO)C(=O)NCC(=O)N[C@@H](C)C(=O)N1CCC[C@H]1C(=O)N1CCC[C@H]1C(=O)N1CCC[C@H]1C(=O)N[C@@H](CO)C(N)=O)[C@@H](C)CC` [SEQ ID NO: 6, H2N-Y-Aib-E-G-T-F-I-S-D-I-S-I-Aib-K[{N-MeGly}3-gGlu-C18OH]-D-R-I-H-Q-Aib-E-F-I-E-W-I-L-A-Q-G-P-S-S-G-A-P-P-P-S-NH2] (H-Y[Aib]EGTFISDLSI[Aib]K([Sar-Sar-Sar-γGlu-C18 diacid])DRIHQ[Aib]EFIEWLLAQGPSSGAPPPS-NH2), for which the “Relative purity loss over 28 days at 40° C.” value in data set [1] is listed as 5.4%. Further, in “physchem”, the Soluble amount is more than 8.9 mg/mL and the solubility at 24 h was more than 10.8 mg/mL. The same molecule displayed a half-maximal effective concentration (EC50) in data set [2] of more than 10 nM. Also, on human GIP receptor, the EC50 was determined as 0.3 nM and the maximum response (Emax) came out at 112%. This molecule had an IC50 in data set [3] of 0.1 nM.

A word on the solubility: it is the dissolved amount per volume that the medium holds. Higher therefore signals much dissolved substance. One may read the EC50 as the concentration giving half of the maximal effect. By Emax is commonly meant the maximal effect, on the per cent scale that the assay sets. As a reminder, the IC50 is the point on the concentration scale where inhibition reaches its midpoint. A high value points to weaker potency.
